Measurements published in BindingDB's records for doi:10.1016/j.ejmech.2011.02.013 (King Saud University, 2011).
pIC50: −log10 of the molar value.

molecular target: T1, Prostaglandin G/H synthase 1 (Ovis aries, UniProt P05979); assay: Inhibition of ovine COX1 after 5 mins by enzyme immunoassay
T1 sequence (P05979 whole entry): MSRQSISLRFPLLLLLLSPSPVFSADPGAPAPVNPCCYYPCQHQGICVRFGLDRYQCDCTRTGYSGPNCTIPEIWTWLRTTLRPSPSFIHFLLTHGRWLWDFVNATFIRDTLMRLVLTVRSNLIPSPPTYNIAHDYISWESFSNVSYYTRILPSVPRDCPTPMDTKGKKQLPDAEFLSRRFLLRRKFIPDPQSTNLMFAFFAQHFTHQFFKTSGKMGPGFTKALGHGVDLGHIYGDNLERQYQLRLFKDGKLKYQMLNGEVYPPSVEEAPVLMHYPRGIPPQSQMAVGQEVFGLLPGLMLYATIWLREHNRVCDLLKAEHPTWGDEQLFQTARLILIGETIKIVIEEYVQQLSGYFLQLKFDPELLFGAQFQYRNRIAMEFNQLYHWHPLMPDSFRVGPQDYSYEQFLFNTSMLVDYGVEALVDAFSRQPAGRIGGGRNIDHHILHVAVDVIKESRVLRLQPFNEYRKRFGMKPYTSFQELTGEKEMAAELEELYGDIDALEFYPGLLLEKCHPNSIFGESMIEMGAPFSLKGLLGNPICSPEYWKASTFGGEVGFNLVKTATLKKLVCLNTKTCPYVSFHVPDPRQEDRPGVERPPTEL

Question: With COc1cc(-n2c(O)ccc2O)cc(OC)c1OC [1-(3,4,5-Trimethoxyphenyl)pyrrolidine-2,5-dione] as the compound, how does the pIC50 read?
Answer: The pIC50 was < 4.00.

Question: How did the pIC50 turn out when Oc1ccc(O)n1-c1cc(Cl)c(Cl)c(Cl)c1 [1-(3,4,5-trichlorophenyl)pyrrolidine-2,5-dione] was run?
Answer: The pIC50 was < 4.00.

Question: With Oc1c2c(c(O)n1-c1cc(Cl)c(Cl)c(Cl)c1)C1(Cl)C(Cl)=C(Cl)C2(Cl)C1(Cl)Cl [4,5,6,7,8,8-Hexachloro-2-(3,4,5-trichlorophenyl)-3a,4,7,7a-tetrahydro-1H-4,7-methanoisoindole-1,3(2H)-dione] as the compound, how does the pIC50 read?
Answer: The pIC50 was < 4.00.

Question: With COc1cc(-n2c(O)c3c(c2O)C2(Cl)C(Cl)=C(Cl)C3(Cl)C2(Cl)Cl)cc(OC)c1OC [4,5,6,7,8,8-Hexachloro-2-(3,4,5-trimethoxyphenyl)-3a,4,7,7a-tetrahydro-1H-4,7-methanoisoindole-1,3(2H)-dione] as the compound, how does the pIC50 read?
Answer: The pIC50 was < 4.00.

Question: How did the pIC50 turn out when Oc1c2c(c(O)n1-c1cc(Cl)c(Cl)c(Cl)c1)CC=CC2 [cis-2-(3,4,5-Trichlorophenyl)-3a,4,7,7a-tetrahydro-1H-isoindole-1,3(2H)-dione] was run?
Answer: Its pIC50 is < 4.00.

Question: With COc1cc(-n2c(O)c3c(c2O)CC=CC3)cc(OC)c1OC [cis-2-(3,4,5-Trimethoxyphenyl)-3a,4,7,7a-tetrahydro-1H-isoindole-1,3(2H)-dione] as the compound, how does the pIC50 read?
Answer: The pIC50 was < 4.00.
